Measured values reported in patent US10793525B2, “13-cis-RAMBA retinamides that degrade MNKs for treating cancer” (UNIVERSITY OF MARYLAND, BALTIMORE, priority 2014, dated 2020).
Where two headings read alike, the source gives them in different places.

Assays:
[1] = system: CWR22Rv1 human prostate carcinoma cells; conditions: previously reported in Ramamurthy V et al., read-out: GI50s CWR22Rv1; cited from earlier work
[2] = system: PC-3 human prostate carcinoma cells; conditions: PC-3 cells; previously reported in Ramamurthy V et al.; read-out: GI50s PC-3; cited from earlier work
[3] = system: LNCaP human prostate carcinoma cells; conditions: previously reported in Ramamurthy V et al., read-out: GI50s LNCaP; cited from earlier work
[4] = system: MCF-7 human breast cancer cells; assay: MTT cell proliferation assay, MCF-7; type: cell-based; conditions: MCF-7 cells; for IC50: Homo sapiens, MCF7, MTT, SEM < 10%, read-out: GI50s MCF-7
Description: (§1) MCF-7, MDA-MB-231, MDA-MB-468 and SKBR-3 human breast cancer cells and LNCaP, PC-3, and CWR22Rv1 human prostate carcinoma cells (American Type Culture Collection, Manassas, Va., USA) were maintained in RPMI 1640 media (Gibco-Life Technologies, Grand Island, N.Y., USA) supplemented with 10% fetal bovine serum and 1% penicillin/streptomycin. Western blotting was done as mentioned previously,^8, 13b using the following antibodies: AR, Bad, Bax, Bcl-2, eIF4E, Mnk1, Mnk-2, N-cadherin, PARP, peIF4E^ser209 purchased from Cell Signaling Technology, Danvers, Mass., USA. Anti-Mnk2 was purchased from Sigma-Aldrich and normal rabbit IgG, cyclin D1 was from Santa Cruz Biotechnology, CA, USA.
(§2) Cells were plated (2500 cells/well) in 96 well plates and treated with or without specified compounds as described previously.^8a, 12b
(§3) The clinically relevant retinoids, ATRA and 4-HPR and the Mnk inhibitor, cercosporamide were used as comparators in the assays.

[5] = system: MDA-MB-468 human breast cancer cells; assay: MTT cell proliferation assay, MDA-MB-468; type: cell-based; conditions: MDA-MB-468 cells, SEM < 10%, read-out: GI50s MDA-MB-468
Description: as §1, §2, §3

[6] = system: SKBR-3 human breast cancer cells; assay: MTT cell proliferation assay, SKBR-3; type: cell-based; conditions: SK-BR-3, SKBR-3 cells, SEM < 10%, read-out: GI50s SKBR-3
Description: as §1, §2, §3

[7] = system: MDA-MB-231 human breast cancer cells; assay: MTT cell proliferation assay, MDA-MB-231; type: cell-based; conditions: MDA-MB-231 cells, SEM < 10%, read-out: GI50s MDA-MB-231
Description: as §1, §2, §3

[8] = system: PC-3 human prostate carcinoma cells; assay: MTT cell proliferation assay, PC-3; type: cell-based; conditions: PC-3 cells, SEM < 10%, read-out: GI50s PC-3
Description: as §1, §2, §3
(§4) The PC-3 cell line was the least sensitive to all the compounds tested.

[9] = system: LNCaP human prostate carcinoma cells; assay: MTT cell proliferation assay, LNCaP; type: cell-based; conditions: SEM < 10%, read-out: GI50s LNCaP
Description: as §1, §2, §3, §4

[10] = system: CWR22Rv1 human prostate carcinoma cells; assay: MTT cell proliferation assay, CWR22Rv1; type: cell-based; conditions: SEM < 10%, read-out: GI50s CWR22Rv1
Description: as §1, §2, §3, §4

[11] = system: MCF-7, MDA-MB-231, MDA-MB-468 and SKBR-3 human breast cancer cells; assay: MTT cell proliferation assay, four breast cancer cell lines together; type: cell-based; conditions: range across the four BC cell lines, read-out: GI50s, range over the BC cell lines
Description: as §1, §2, §3

IC50 [4]	IC50 [5]	IC50 [6]	IC50 [7]	IC50 [8]	IC50 [9]	IC50 [10]	fold more potent than Compound 16 (GI50, MCF-7) ([4]; versus Compound 16)	IC50 [11]	melting point	Compound	IC50 [1]	IC50 [2]	IC50 [3]
–	–	–	–	–	–	–	–	–	–	CC(O)(CS(=O)(=O)c1ccc(F)cc1)C(=O)Nc1ccc(C#N)c(C(F)(F)F)c1 (stereo not drawn) [Casodex]	3.81 µM	9.15 µM	2.61 µM
4.65 µM	6.02 µM	3.98 µM	11.1 µM	–	–	–	–	–	–	CC1=C(/C=C/C(C)=C/C=C/C(C)=C/C(=O)Nc2ccc(O)cc2)C(C)(C)CCC1 [Compound 4-HPR, N-(4-hydroxyphenyl) retinamide, reference compound]	3.23 µM	3.54 µM	2.69 µM
1.99 µM	6.83 µM	3.89 µM	13.1 µM	11.7 µM	3.54 µM	3.89 µM	–	–	–	CC1=C(/C=C/C(C)=C/C=C/C(C)=C\C(=O)Nc2ccc(O)cc2)C(C)(C)CCC1n1ccnc1 (stereo not drawn) [Compound 17, (2Z,4E,6E,8E)-9-(3-(1H-imidazol-1-yl)-2,6,6-trimethylcyclohex-1-en-1-yl)-N-(4-hydroxyphenyl)-3,7-dimethylnona-2,4,6,8-tetraenamide]	–	–	–
1.09 µM	3.03 µM	3.89 µM	4.67 µM	15.5 µM	3.23 µM	2.23 µM	–	–	–	CC1=C(/C=C/C(C)=C/C=C/C(C)=C\C(=O)Nc2ccccc2O)C(C)(C)CCC1n1ccnc1 (stereo not drawn) [Compound 18, (2Z,4E,6E,8E)-9-(3-(1H-imidazol-1-yl)-2,6,6-trimethylcyclohex-1-en-1-yl)-N-(2-hydroxyphenyl)-3,7-dimethylnona-2,4,6,8-tetraenamide]	–	–	–
0.4 µM	4.57 µM	25.1 µM	4.95 µM	30.2 µM	3.89 µM	–	~4.8 fold	–	–	CC1=C(/C=C/C(C)=C/C=C/C(C)=C\C(=O)Nc2ccc(F)cc2)C(C)(C)CCC1n1ccnc1 (stereo not drawn) [Compound 19, (2Z,4E,6E,8E)-9-(3-(1H-imidazol-1-yl)-2,6,6-trimethylcyclohex-1-en-1-yl)-N-(4-fluorophenyl)-3,7-dimethylnona-2,4,6,8-tetraenamide]	–	–	–
9.77 µM	7.24 µM	10.7 µM	5.88 µM	–	–	–	–	5.88 to 10.7 µM	–	CC1=C(/C=C/C(C)=C/C=C/C(C)=C\C(=O)NCc2ccccc2)C(C)(C)CCC1n1ccnc1 (stereo not drawn) [Compound 21, (2Z,4E,6E,8E)-9-(3-(1H-imidazol-1-yl)-2,6,6-trimethylcyclohex-1-en-1-yl)-N-benzyl-3,7-dimethylnona-2,4,6,8-tetraenamide]	–	–	–
1.93 µM	2.45 µM	5.5 µM	1.41 µM	–	–	–	–	–	93 to 95 °C	CC1=C(/C=C/C(C)=C/C=C/C(C)=C\C(=O)NCc2ccc(F)cc2)C(C)(C)CCC1n1ccnc1 (stereo not drawn) [Compound 23, (2Z,4E,6E,8E)-9-(3-(1H-imidazol-1-yl)-2,6,6-trimethylcyclohex-1-en-1-yl)-N-(4-fluorobenzyl)-3,7-dimethylnona-2,4,6,8-tetraenamide]	–	–	–
1.81 µM	2.45 µM	5.5 µM	1.65 µM	–	–	–	–	–	–	CC1=C(/C=C/C(C)=C/C=C/C(C)=C\C(=O)NCc2cccc(F)c2)C(C)(C)CCC1n1ccnc1 (stereo not drawn) [Compound 24, (2Z,4E,6E,8E)-9-(3-(1H-imidazol-1-yl)-2,6,6-trimethylcyclohex-1-en-1-yl)-N-(3-fluorobenzyl)-3,7-dimethylnona-2,4,6,8-tetraenamide]	–	–	–
1.9 µM	13.5 µM	1.41 µM	2.88 µM	–	–	–	–	–	126 to 128 °C	CC1=C(/C=C/C(C)=C/C=C/C(C)=C\C(=O)NCCc2ccc(O)cc2)C(C)(C)CCC1n1ccnc1 (stereo not drawn) [Compound 25, (2Z,4E,6E,8E)-9-(3-(1H-imidazol-1-yl)-2,6,6-trimethylcyclohex-1-en-1-yl)-N-(4-hydroxyphenethyl)-3,7-dimethylnona-2,4,6,8-tetraenamide]	–	–	–
8.32 µM	39.8 µM	47.4 µM	25.1 µM	–	–	–	–	–	–	CC1=C(/C=C/C(C)=C/C=C/C(C)=C\C(=O)Nc2ccccc2)C(C)(C)CC=C1c1cccnc1 [Compound 35, (2Z,4E,6E,8E)-3,7-dimethyl-N-phenyl-9-(2,6,6-trimethyl-3-(pyridin-3-yl)cyclohexa-1,3-dien-1-yl)nona-2,4,6,8-tetraenamide]	–	–	–
–	–	–	–	–	–	–	–	–	124 to 126 °C	CC1=C(/C=C/C(C)=C/C=C/C(C)=C\C(=O)NCc2ccc(O)cc2)C(C)(C)CC=C1c1cccnc1 [Compound 36, (2Z,4E,6E,8E)-N-(4-hydroxybenzyl)-3,7-dimethyl-9-(2,6,6-trimethyl-3-(pyridin-3-yl)cyclohexa-1,3-dien-1-yl)nona-2,4,6,8-tetraenamide]	–	–	–
8.75 µM	50.1 µM	42.2 µM	26.9 µM	–	–	–	–	–	110 to 112 °C	CC1=C(/C=C/C(C)=C/C=C/C(C)=C\C(=O)NCCc2ccc(O)cc2)C(C)(C)CC=C1c1cccnc1 [Compound 37, (2Z,4E,6E,8E)-N-(4-hydroxyphenethyl)-3,7-dimethyl-9-(2,6,6-trimethyl-3-(pyridin-3-yl)cyclohexa-1,3-dien-1-yl)nona-2,4,6,8-tetraenamide]	–	–	–
7.01 µM	22.9 µM	31 µM	26.9 µM	–	–	–	–	–	105 to 107 °C	CC1=C(/C=C/C(C)=C/C=C/C(C)=C\C(=O)Nc2ccccc2)C(C)(C)CC=C1c1cncnc1 [Compound 38, (2Z,4E,6E,8E)-3,7-dimethyl-N-phenyl-9-(2,6,6-trimethyl-3-(pyrimidin-5-yl)cyclohexa-1,3-dien-1-yl)nona-2,4,6,8-tetraenamide]	–	–	–
4.96 µM	19.1 µM	11.5 µM	11.5 µM	–	–	–	–	–	145 to 147 °C	CC1=C(/C=C/C(C)=C/C=C/C(C)=C\C(=O)NCc2ccc(O)cc2)C(C)(C)CC=C1c1cncnc1 [Compound 39, (2Z,4E,6E,8E)-N-(4-hydroxybenzyl)-3,7-dimethyl-9-(2,6,6-trimethyl-3-(pyrimidin-5-yl)cyclohexa-1,3-dien-1-yl)nona-2,4,6,8-tetraenamide]	–	–	–
2.96 µM	23.4 µM	24 µM	14.5 µM	–	–	–	–	–	115 to 117 °C	CC1=C(/C=C/C(C)=C/C=C/C(C)=C\C(=O)NCCc2ccc(O)cc2)C(C)(C)CC=C1c1cncnc1 [Compound 40, (2Z,4E,6E,8E)-N-(4-hydroxyphenethyl)-3,7-dimethyl-9-(2,6,6-trimethyl-3-(pyrimidin-5-yl)cyclohexa-1,3-dien-1-yl)nona-2,4,6,8-tetraenamide]	–	–	–
